Source: paper PMC3445516 (PLoS ONE, 2012)
Read-outs that look alike come from different tables or passages of the source.

Experiments:
Experiment in all cases: Ambit kinase profiling, competition binding
CDK7 = molecular target: T1, CDK7 (Homo sapiens, UniProt P50613)
T1 construct: purchased Ambit Biosciences (KINOMEscan)
Protocol: (§1) Also included in the kinase profile are four isoforms of PKC (δ, ε, η, θ) and eight isoforms of CAMKs (CAMKIα, δ, γ; CAMKIIα, β, δ, γ; CAMK4).
(§2) The global kinase profiling experiment was performed by Ambit Biosciences.

CSNK1D = molecular target: T2, CSNK1D (Homo sapiens, UniProt P48730)
T2 construct: purchased Ambit Biosciences (KINOMEscan)
Protocol: as §1, §2

CSNK1G1 = molecular target: T3, CSNK1G1 (Homo sapiens, UniProt Q9HCP0); conditions: for % Competition: 10 µM
T3 construct: purchased Ambit Biosciences (KINOMEscan)
Protocol: as §1, §2

CLK1 = molecular target: T4, CLK1 (Homo sapiens, UniProt P49759)
T4 construct: purchased Ambit Biosciences (KINOMEscan)
Protocol: as §1, §2

YANK3 = molecular target: T5, YANK3 (Homo sapiens, UniProt Q86UX6)
T5 construct: purchased Ambit Biosciences (KINOMEscan)
Protocol: as §1, §2

PKC ε = molecular target: T6, PKC ε (Homo sapiens, UniProt Q02156); conditions: for competition: PKC ε, 10 µM
T6 construct: purchased Ambit Biosciences (KINOMEscan)
T6 sequence (Q02156 1-737): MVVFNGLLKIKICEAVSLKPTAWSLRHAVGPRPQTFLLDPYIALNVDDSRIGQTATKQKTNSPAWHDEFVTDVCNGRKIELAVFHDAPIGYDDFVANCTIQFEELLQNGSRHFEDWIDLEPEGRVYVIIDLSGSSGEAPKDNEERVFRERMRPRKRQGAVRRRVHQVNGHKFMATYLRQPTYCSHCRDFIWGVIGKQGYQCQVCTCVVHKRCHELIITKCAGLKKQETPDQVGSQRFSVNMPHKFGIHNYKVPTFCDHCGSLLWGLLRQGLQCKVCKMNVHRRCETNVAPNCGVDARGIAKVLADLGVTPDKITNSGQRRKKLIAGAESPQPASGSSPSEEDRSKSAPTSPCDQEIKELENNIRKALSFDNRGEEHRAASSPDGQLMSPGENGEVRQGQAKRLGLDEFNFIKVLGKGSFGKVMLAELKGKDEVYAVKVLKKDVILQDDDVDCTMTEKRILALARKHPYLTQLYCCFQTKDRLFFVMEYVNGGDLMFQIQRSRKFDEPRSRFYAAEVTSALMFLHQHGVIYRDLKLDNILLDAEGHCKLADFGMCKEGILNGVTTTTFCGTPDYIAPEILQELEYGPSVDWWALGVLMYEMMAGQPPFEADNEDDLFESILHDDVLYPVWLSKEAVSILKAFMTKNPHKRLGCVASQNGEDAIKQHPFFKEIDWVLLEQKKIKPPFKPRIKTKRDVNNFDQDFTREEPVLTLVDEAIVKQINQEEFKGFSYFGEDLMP
Protocol: as §1, §2

ROS1 = molecular target: T7, ROS1 (Homo sapiens, UniProt P08922)
T7 construct: purchased Ambit Biosciences (KINOMEscan)
Protocol: as §1, §2

EPHA3 = molecular target: T8, EPHA3 (Homo sapiens, UniProt P29320)
T8 construct: purchased Ambit Biosciences (KINOMEscan)
T8 sequence (P29320 21-983): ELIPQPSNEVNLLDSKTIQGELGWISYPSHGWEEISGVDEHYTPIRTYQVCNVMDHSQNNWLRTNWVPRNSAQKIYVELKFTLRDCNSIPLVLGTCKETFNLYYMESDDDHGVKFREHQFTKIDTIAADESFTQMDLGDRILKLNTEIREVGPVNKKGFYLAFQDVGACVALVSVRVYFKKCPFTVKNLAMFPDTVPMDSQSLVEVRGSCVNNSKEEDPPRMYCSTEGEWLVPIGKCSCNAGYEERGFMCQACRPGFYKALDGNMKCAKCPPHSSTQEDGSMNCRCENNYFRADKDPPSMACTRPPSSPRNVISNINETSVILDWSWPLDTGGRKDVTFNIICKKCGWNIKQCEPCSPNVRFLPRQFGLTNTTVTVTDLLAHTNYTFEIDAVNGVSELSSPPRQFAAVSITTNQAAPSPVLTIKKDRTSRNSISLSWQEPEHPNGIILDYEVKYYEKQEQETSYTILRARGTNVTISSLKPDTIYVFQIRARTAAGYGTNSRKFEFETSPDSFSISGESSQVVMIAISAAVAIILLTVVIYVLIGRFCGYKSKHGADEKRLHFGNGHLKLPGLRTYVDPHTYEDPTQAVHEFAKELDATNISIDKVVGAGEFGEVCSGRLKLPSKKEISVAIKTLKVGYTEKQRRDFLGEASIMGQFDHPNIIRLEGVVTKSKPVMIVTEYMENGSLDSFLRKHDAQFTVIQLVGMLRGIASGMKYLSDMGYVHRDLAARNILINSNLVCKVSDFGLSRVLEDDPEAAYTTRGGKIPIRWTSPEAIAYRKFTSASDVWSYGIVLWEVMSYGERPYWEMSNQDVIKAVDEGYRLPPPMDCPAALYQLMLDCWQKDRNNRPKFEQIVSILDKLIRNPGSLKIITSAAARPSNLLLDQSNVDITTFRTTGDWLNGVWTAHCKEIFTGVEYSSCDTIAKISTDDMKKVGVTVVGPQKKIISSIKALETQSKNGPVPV
Protocol: as §1, §2

T4 sequence (P49759 whole entry): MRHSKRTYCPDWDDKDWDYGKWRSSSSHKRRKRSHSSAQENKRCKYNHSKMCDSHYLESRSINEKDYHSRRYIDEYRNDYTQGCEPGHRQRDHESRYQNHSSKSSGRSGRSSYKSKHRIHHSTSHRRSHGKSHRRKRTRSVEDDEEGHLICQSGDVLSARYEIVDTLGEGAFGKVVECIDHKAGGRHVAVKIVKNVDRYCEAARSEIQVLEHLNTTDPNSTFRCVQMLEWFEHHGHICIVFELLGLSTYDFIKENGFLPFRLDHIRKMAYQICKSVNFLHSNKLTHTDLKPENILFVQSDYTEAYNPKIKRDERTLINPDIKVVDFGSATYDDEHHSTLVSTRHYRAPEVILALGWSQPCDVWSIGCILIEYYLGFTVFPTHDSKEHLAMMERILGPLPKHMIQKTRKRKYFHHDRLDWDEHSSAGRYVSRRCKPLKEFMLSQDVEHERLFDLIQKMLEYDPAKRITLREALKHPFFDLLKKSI
T2 sequence (P48730 whole entry): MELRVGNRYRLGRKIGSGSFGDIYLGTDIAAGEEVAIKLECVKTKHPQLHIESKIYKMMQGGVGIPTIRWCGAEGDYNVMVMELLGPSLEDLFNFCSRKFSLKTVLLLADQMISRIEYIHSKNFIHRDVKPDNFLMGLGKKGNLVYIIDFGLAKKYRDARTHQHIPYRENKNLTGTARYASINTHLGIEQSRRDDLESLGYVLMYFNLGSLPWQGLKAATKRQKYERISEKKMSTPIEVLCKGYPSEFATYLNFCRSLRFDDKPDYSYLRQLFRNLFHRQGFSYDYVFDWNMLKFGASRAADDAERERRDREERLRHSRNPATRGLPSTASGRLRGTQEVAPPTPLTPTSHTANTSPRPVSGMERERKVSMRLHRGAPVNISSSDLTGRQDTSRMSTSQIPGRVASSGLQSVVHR
T7 sequence (P08922 28-2347): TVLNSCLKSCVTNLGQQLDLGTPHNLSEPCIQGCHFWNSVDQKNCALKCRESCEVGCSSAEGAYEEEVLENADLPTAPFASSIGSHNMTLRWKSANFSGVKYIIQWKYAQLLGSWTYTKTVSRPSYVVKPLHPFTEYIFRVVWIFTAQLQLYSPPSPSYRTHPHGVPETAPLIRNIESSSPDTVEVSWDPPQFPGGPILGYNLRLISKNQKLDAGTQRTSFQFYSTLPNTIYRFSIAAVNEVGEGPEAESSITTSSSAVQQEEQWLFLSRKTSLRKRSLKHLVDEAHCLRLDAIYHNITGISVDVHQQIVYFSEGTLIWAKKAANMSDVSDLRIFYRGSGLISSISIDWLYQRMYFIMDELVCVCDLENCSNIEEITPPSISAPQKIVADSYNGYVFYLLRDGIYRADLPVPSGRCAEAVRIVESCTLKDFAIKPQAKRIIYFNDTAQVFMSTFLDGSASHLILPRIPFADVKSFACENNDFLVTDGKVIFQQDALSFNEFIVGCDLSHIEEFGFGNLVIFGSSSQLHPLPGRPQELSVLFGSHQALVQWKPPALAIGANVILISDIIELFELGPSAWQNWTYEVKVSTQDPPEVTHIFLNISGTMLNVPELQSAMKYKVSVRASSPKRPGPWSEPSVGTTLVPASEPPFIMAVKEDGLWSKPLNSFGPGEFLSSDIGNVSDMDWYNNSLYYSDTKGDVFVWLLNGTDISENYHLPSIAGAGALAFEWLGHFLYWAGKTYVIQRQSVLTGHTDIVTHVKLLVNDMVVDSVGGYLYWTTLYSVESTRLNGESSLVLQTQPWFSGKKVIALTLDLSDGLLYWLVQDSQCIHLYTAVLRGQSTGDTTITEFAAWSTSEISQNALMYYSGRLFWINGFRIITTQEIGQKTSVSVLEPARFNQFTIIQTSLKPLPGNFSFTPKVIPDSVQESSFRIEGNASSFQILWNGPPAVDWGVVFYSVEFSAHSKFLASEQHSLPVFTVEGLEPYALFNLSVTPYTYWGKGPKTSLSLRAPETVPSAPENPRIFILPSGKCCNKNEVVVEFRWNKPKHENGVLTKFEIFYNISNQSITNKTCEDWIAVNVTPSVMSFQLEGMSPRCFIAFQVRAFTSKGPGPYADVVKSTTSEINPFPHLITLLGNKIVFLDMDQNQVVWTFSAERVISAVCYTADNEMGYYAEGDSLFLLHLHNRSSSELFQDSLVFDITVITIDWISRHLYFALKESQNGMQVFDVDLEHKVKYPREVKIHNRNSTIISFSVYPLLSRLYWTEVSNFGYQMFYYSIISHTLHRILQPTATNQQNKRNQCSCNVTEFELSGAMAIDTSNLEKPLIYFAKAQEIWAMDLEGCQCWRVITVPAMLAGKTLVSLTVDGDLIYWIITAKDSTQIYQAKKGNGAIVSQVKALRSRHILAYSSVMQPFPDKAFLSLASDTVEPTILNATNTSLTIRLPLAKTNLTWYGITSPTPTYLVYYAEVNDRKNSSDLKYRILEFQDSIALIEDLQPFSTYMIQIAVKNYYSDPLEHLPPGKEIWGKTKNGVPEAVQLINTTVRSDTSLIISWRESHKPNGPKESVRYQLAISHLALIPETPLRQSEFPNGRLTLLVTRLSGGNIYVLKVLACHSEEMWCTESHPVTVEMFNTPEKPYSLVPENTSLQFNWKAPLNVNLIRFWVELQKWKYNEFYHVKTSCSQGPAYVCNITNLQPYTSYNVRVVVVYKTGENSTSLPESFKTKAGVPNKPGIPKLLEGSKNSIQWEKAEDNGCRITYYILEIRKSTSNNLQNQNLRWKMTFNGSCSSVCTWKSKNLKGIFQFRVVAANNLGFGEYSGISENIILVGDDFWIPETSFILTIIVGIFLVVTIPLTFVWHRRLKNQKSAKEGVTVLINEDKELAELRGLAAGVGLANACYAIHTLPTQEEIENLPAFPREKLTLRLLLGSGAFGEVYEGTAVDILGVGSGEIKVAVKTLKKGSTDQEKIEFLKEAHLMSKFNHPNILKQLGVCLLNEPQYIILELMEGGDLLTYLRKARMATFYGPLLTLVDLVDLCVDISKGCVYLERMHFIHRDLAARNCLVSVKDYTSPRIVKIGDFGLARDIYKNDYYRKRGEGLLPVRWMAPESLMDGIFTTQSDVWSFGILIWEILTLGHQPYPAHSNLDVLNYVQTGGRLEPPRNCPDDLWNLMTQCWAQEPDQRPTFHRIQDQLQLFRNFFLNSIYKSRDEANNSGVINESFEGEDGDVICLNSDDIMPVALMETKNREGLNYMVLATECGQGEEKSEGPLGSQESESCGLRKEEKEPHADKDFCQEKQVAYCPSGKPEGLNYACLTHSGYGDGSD
T5 sequence (Q86UX6 whole entry): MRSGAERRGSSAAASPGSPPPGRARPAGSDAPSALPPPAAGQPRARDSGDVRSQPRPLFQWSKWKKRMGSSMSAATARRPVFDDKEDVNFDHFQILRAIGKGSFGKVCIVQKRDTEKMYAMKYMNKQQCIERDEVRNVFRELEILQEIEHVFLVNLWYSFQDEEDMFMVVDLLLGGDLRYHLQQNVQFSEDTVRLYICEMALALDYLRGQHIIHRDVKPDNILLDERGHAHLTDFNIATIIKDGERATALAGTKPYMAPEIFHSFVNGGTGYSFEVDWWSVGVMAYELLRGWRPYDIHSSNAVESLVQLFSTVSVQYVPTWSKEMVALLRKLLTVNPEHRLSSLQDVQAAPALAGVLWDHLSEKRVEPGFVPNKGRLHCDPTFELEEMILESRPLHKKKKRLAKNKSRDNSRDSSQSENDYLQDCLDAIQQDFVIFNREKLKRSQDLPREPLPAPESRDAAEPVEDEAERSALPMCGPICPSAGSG
T3 sequence (Q9HCP0 whole entry): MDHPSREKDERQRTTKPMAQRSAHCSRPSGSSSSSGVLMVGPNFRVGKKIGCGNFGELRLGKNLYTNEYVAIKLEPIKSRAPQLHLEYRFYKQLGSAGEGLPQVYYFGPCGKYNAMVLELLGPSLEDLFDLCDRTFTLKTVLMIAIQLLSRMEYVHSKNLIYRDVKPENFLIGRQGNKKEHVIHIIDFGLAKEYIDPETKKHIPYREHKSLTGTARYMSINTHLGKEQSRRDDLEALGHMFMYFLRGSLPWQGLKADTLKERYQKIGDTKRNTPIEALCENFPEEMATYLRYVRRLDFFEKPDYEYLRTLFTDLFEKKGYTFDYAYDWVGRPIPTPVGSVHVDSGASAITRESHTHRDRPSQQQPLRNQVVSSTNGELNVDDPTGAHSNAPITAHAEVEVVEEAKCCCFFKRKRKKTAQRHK
T1 sequence (P50613 whole entry): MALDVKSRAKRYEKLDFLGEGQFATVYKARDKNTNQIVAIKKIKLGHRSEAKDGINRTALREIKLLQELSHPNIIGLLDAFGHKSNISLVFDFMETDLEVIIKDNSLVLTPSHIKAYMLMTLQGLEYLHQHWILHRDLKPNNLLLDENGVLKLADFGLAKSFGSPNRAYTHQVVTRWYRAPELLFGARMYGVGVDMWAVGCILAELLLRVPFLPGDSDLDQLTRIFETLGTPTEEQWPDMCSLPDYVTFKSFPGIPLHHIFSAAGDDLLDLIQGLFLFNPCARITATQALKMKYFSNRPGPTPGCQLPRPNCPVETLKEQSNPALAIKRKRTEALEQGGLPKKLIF

Fc1ccc(-c2c(-c3ccncc3)[nH]c3nccnc23)cc1 [Compound 122]
inhibition at 10 µM (CDK7; CDK7, 10 µM, read-out: % Competition): 100% | inhibition at 10 µM (CSNK1D; CSNK1D, 10 µM, read-out: % Competition): 97% | % Competition (CSNK1G1): 78% | inhibition at 10 µM (CLK1; CLK1, 10 µM, read-out: % Competition): 97% | inhibition at 10 µM (YANK3; YANK3, 10 µM, read-out: % Competition): 67% | competition (PKC ε): < 50% | inhibition at 10 µM (ROS1; ROS1, 10 µM, read-out: % Competition): 80% | inhibition at 10 µM (EPHA3; EPHA3, 10 µM, read-out: % Competition): 85%

CC(O)CNc1cc(-c2[nH]c3cccnc3c2-c2ccc(F)cc2)ccn1 (stereo not drawn) [Compound 140]
inhibition at 10 µM (CDK7; read-out: % Competition): < 50% | inhibition at 10 µM (CSNK1D; read-out: % Competition): 96% | % Competition (CSNK1G1): 94% | inhibition at 10 µM (CLK1; read-out: % Competition): < 50% | inhibition at 10 µM (YANK3; read-out: % Competition): < 50% | competition (PKC ε): < 50% | inhibition at 10 µM (ROS1; read-out: % Competition): < 50% | inhibition at 10 µM (EPHA3; read-out: % Competition): < 50%

Fc1ccc(-c2c(-c3ccncc3)[nH]c3nccnc23)cc1 [RO1155697-000-005]
inhibition at 10 µM (CDK7; CDK7, compound concentration 10 uM, read-out: Percent Competition): 100% | inhibition at 10 µM (CSNK1D; CSNK1D, compound concentration 10 uM, read-out: Percent Competition): 97% | Percent Competition (CSNK1G1; compound concentration 10 uM): 78% | inhibition at 10 µM (CLK1; CLK1, compound concentration 10 uM, read-out: Percent Competition): 97% | inhibition at 10 µM (YANK3; YANK3, compound concentration 10 uM, read-out: Percent Competition): 67% | inhibition at 10 µM (PKC ε; PRKCE, compound concentration 10 uM, read-out: Percent Competition): < 50% | inhibition at 10 µM (ROS1; ROS1, compound concentration 10 uM, read-out: Percent Competition): 80% | inhibition at 10 µM (EPHA3; EPHA3, compound concentration 10 uM, read-out: Percent Competition): 85%
